Measured values from ChEMBL document CHEMBL4808233, “Discovery and evaluation of non-basic small molecule modulators of the atypical chemokine receptor CXCR7” (Bioorg Med Chem Lett, 2021).

What was measured:
[1] = Lipophilicity, logD of the compound at pH 7.4 by shake flask method; format: physicochemical; conditions: buffer
[2] = Oral bioavailability in C57BL6 mouse at 10 mg/kg; format: ADME, organism-based; conditions: in vivo
[3] = Half life in C57BL6 mouse at 5 mg/kg, sc; format: ADME, organism-based; conditions: in vivo
[4] = Half life in C57BL6 mouse at 2 mg/kg, iv; format: ADME, organism-based; conditions: in vivo
[5] = Unbound cmax in C57BL6 mouse; format: ADME; conditions: in vivo
[6] = Bioavailability in C57BL6 mouse at 5 mg/kg, sc; format: ADME, organism-based; conditions: in vivo
[7] = Tmax in C57BL6 mouse at 10 mg/kg, po; format: ADME, organism-based; conditions: in vivo
[8] = Cmax in C57BL6 mouse at 5 mg/kg, sc; format: ADME, organism-based; design: route subcutaneous, dose 5 mg/kg; conditions: in vivo
[9] = Volume of distribution at steady state in C57BL6 mouse at 2 mg/kg, iv; format: ADME, organism-based; conditions: in vivo, read-out: Vdss
[10] = AUC infinity in C57BL6 mouse at 10 mg/kg, po; format: ADME, organism-based; design: route oral, time infinity, dose 10 mg/kg; conditions: in vivo
[11] = AUC infinity in C57BL6 mouse at 2 mg/kg, iv; format: ADME, organism-based; design: time infinity, route intravenous, dose 2 mg/kg; conditions: in vivo
[12] = target: Atypical chemokine receptor 3 (Mus musculus, UniProt P56485); experiment: Binding affinity to mouse CXCR7
Chain of Atypical chemokine receptor 3 (P56485 whole entry): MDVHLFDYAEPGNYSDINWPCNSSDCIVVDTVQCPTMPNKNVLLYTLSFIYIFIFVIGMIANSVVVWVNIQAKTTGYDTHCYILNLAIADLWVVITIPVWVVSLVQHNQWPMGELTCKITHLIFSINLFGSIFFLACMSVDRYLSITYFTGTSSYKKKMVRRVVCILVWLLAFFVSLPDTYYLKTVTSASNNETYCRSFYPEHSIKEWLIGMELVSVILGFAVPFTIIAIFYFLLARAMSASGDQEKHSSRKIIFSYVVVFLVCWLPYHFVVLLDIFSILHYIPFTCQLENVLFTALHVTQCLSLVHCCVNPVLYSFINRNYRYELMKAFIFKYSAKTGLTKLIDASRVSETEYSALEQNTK

[13] = Half life in C57BL6 mouse at 10 mg/kg, po; format: ADME, organism-based; conditions: in vivo
[14] = Cmax in C57BL6 mouse at 10 mg/kg, po; format: ADME, organism-based; design: route oral, dose 10 mg/kg; conditions: in vivo
[15] = Protein binding in C57BL6 mouse plasma assessed as unbound fraction; format: ADME, cell-free
[16] = AUC infinity in C57BL6 mouse at 2 mg/kg, sc; format: ADME, organism-based; design: time infinity, route subcutaneous, dose 2 mg/kg; conditions: in vivo
[17] = Tmax in C57BL6 mouse at 5 mg/kg, sc; format: ADME, organism-based; conditions: in vivo

| SMILES | logD [1] | bioavailability [2] | half-life [3] | half-life [4] | fCmax [5] | bioavailability [6] | Tmax [7] | Cmax [8] | Vd [9] | AUC(0-inf) [10] | AUC(0-inf) [11] | Ki [12] | half-life [13] | Cmax [14] | fraction unbound [15] | AUC(0-inf) [16] | Tmax [17] |
| --- | --- | --- | --- | --- | --- | --- | --- | --- | --- | --- | --- | --- | --- | --- | --- | --- | --- |
| COc1ccc2cccnc2c1N1CCCN(Cc2csc(-c3ccccc3)n2)CC1 | 3.4 | – | – | – | – | – | – | – | – | – | – | – | – | – | – | – | – |
| CCc1ccn2ccnc2c1N1CCCN(CC2CCN(C(=O)[C@H]3C[C@@H]4CC[C@H]3O4)CC2)CC1 | 0.7 | – | – | – | – | – | – | – | – | – | – | – | – | – | – | – | – |
| CCN(C)C(=O)N1C[C@@H]2[C@H](C1)[C@H]2C(=O)N[C@H]1CCN(c2nccn3ccnc23)C1 | – | 5% | 30 min | 12 min | 1.56 µM | 71% | 4.8 min | 1550 ng/mL | 0.3 L/kg | 199 ng·h/mL | 864 ng·h/mL | 155 nM | 78 min | 185 ng/mL | 0.4 | 1530 ng·h/mL | 15 min |
